Data: PubChem BioAssay AID1963974 (Molecular Pharmacology Branch, DTP, NCI, 2024)

Test system: 648629-189-R-J1-PDC spheroids with HUVEC/MSC, viability
Test: Anticancer human tumor 648629-189-R-J1-PDC patient-derived bladder carcinoma cell line growth inhibition [PI3K]
Conditions: for IC50: curve of first compound; for viability, T/C: stronger effect = lower value
Text: Combinatorial screen of targeted agents with the PI3K inhibitors inavolisib, alpelisib, duvelisib, and copanlisib in multi-cell type tumor spheroids
A high-throughput screen of multi-cell type tumor spheroids was designed to identify active combinations of targeted small molecules and PI3K pathway inhibitors. Complex spheroids include a stromal component modeled by human endothelial cells (HUVEC) and fibroblasts modeled by human mesenchymal stem cells (MSCs). The concentration ranges selected for each drug and investigational agent were based upon clinically achievable concentrations if the clinical Cmax of the agent was known.
Compounds. The drugs and investigational agents: inavolisib (NSC800729), alpelisib (NSC765974), duvelisib (NSC772469), copanlisib (NSC816437), ipatasertib (NSC767898), afuresertib (NSC778305), talazoparib (NSC767125), sapanisertib (NSC764658), selumetinib (NSC741078), tovorafenib (DAY101, NSC766906), vemurafenib (NSC761431), ravoxertinib (NSC781343), sotorasib (NSC818433), MRTX1133 (NSC 836407), abemaciclib (NSC 768073), palbociclib (NSC758247), venetoclax (NSC 766270), SY5609 (NSC837396), enzalutamide (NSC755605), and darolutamide (NSC825331), were obtained from the National Cancer Institute (NCI) Developmental Therapeutics Program Chemical Repository. The FDA-approved anticancer drug set is available from the NCI Developmental Therapeutics Program. […] The stock solutions were prepared in dimethyl sulfoxide (DMSO, Sigma-Aldrich, St. Louis, MO, cat. D2650) at 800-fold the tested concentration and stored at -70 degrees C prior to their use. All drugs and investigational agents were tested over a range starting from a high concentration at or near the clinical Cmax and decreasing in half-log increments. If the clinical Cmax for an agent had not been determined, the highest concentration tested was 10 microM.
Cell Culture. All cells were maintained in an incubator at 37 degrees C and 5% CO2 with 95% humidity. The PDC lines were cultured according to standard operating procedures established by the NCI PDMR (https://pdmr.cancer.gov/sops/default.htm). All PDCs were thawed and cultured in Matrigel-coated flasks prepared with a working solution of 1X Ham's F-12 nutrient mix, without supplementation (Invitrogen, Waltham, MA, cat. 11765054), 100 U/mL penicillin-streptomycin (Invitrogen, cat. 15140122), and 2.5% Matrigel (Corning Inc., Corning, NY, cat. 354248) for the first three passages. The 354836-022-R-J1-PDC, 475296-252-R-J1-PDC, and 997726-040-R-J2-PDC lines were cultured in 6A media, which includes advanced DMEM/F-12 (Thermo Fisher Scientific, cat. 12634028), 10 mM HEPES (Thermo Fisher Scientific, cat. 15630080), 1X GlutaMAX supplement (Thermo Fisher Scientific, cat. 35050061), 0.1 mg/mL primocin (InvivoGen, San Diego, CA, cat. ant-pm-2), 10% defined fetal bovine serum, heat inactivated (HyClone Laboratories Inc., Logan, UT, cat. SH30070.03HI), 50% L-WRN conditioned media (ATCC, cat. CRL-3276), 1.25 mM N-Acetyl-L-cysteine (Sigma-Aldrich, cat. A9165), 10 mM nicotinamide (Sigma-Aldrich, cat. N0636), 1X B-27 supplement (Thermo Fisher Scientific, cat. 17504044), 1X N-2 supplement (Thermo Fisher Scientific, cat. 17502048), and 10 microM Y-27632 dihydrochloride (Tocris Bioscience, Bristol, United Kingdom, cat. 1254). The 624824-186-R-J2-PDC line was cultured in 6C/Colon 1B media, which includes all 6A media components plus 50 ng/mL human EGF recombinant protein (Thermo Fisher Scientific, cat. PHG0311). […]
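Also: spheroids exposed to agents for seven days before reading.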
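For viability, T/C in this document: percent of vehicle control luminescence where 100% = DMSO treated spheroids.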

## CCCS(=O)(=O)Nc1ccc(F)c(C(=O)c2c[nH]c3ncc(-c4ccc(Cl)cc4)cc23)c1F + Cc1nc(NC(=O)N2CCCC2C(N)=O)sc1-c1ccnc(C(C)(C)C(F)(F)F)c1
Second compound 0.0316 µM
  IC50: 5.13 µM
Second compound 0.1 µM
  IC50: 5.06 µM
Second compound 0.316 µM
  IC50: 4.81 µM
Second compound 1 µM
  IC50: 4.31 µM
Second compound 3.16 µM
  IC50: 3.69 µM
Second compound 10 µM
  IC50: < 0.0316 µM
Second compound 0.0316 µM, first compound 0.0316 µM
  viability, T/C: 122%
Second compound 0.0316 µM, first compound 0.1 µM
  viability, T/C: 104%
Second compound 0.0316 µM, first compound 0.316 µM
  viability, T/C: 123%
Second compound 0.0316 µM, first compound 1 µM
  viability, T/C: 110%
Second compound 0.0316 µM, first compound 3.16 µM
  viability, T/C: 86.2%
Second compound 0.0316 µM, first compound 10 µM
  viability, T/C: 0.2%
Second compound 0.1 µM, first compound 0.0316 µM
  viability, T/C: 115%
Second compound 0.1 µM, first compound 0.1 µM
  viability, T/C: 102%
Second compound 0.1 µM, first compound 0.316 µM
  viability, T/C: 114%
Second compound 0.1 µM, first compound 1 µM
  viability, T/C: 107%
Second compound 0.1 µM, first compound 3.16 µM
  viability, T/C: 84%
Second compound 0.1 µM, first compound 10 µM
  viability, T/C: 0.34%
Second compound 0.316 µM, first compound 0.0316 µM
  viability, T/C: 93.3%
Second compound 0.316 µM, first compound 0.1 µM
  viability, T/C: 97.4%
Second compound 0.316 µM, first compound 0.316 µM
  viability, T/C: 96.9%
Second compound 0.316 µM, first compound 1 µM
  viability, T/C: 90.7%
Second compound 0.316 µM, first compound 3.16 µM
  viability, T/C: 79%
Second compound 0.316 µM, first compound 10 µM
  viability, T/C: 0.27%
Second compound 1 µM, first compound 0.0316 µM
  viability, T/C: 81.1%
Second compound 1 µM, first compound 0.1 µM
  viability, T/C: 96.7%
Second compound 1 µM, first compound 0.316 µM
  viability, T/C: 103%
Second compound 1 µM, first compound 1 µM
  viability, T/C: 84.7%
Second compound 1 µM, first compound 3.16 µM
  viability, T/C: 68.7%
Second compound 1 µM, first compound 10 µM
  viability, T/C: 0.67%
Second compound 3.16 µM, first compound 0.0316 µM
  viability, T/C: 63.1%
Second compound 3.16 µM, first compound 0.1 µM
  viability, T/C: 65.7%
Second compound 3.16 µM, first compound 0.316 µM
  viability, T/C: 62%
Second compound 3.16 µM, first compound 1 µM
  viability, T/C: 53.1%
Second compound 3.16 µM, first compound 3.16 µM
  viability, T/C: 58%
Second compound 3.16 µM, first compound 10 µM
  viability, T/C: 0.64%
Second compound 10 µM, first compound 0.0316 µM
  viability, T/C: 43.7%
Second compound 10 µM, first compound 0.1 µM
  viability, T/C: 44.1%
Second compound 10 µM, first compound 0.316 µM
  viability, T/C: 33.7%
Second compound 10 µM, first compound 1 µM
  viability, T/C: 37%
Second compound 10 µM, first compound 3.16 µM
  viability, T/C: 27.3%
Second compound 10 µM, first compound 10 µM
  viability, T/C: 0.85%
